Assay results from PubChem BioAssay (NCI).
Where “and” joins values, the source holds several entries; their conditions need not be identical. Identical values can stand only once.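 Grown in 96-well plates, cells were treated for 48 hours with each compound at five concentrations. Insufficient inhibition: endpoint recorded as highest concentration tested. GI50 = concentration required for 50% inhibition of growth. The concentration for full growth arrest is given as TGI.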 Calls of active or inactive are those of the source. No stated cut-off is given here; in the data, active means GI50 below about 0.43 µM; inactive means the rest.

Each molecule was assayed on MDA-MB-468 breast (assay: NCI-60 cell line screen, 48 h).

Q: Which GI50 does the source give for `O=C1/C=C/[C@@H](O)[C@@H]2C[C@@H](O)C[C@H]2/C=C/CCC[C@H](CCc2cccc3ccccc23)O1` here?
A: 25.3 nM

Q: And the TGI?
A: 86.7 nM

Q: `CCCCOC(=O)c1ccc(N)cc1` was tested. Which GI50 did it give?
A: 84600 nM

Q: And the TGI?
A: > 100000 nM

Q: Which results are given for `Oc1ccc(Nc2ccc3ccccc3c2)cc1`?
A: GI50: 8050 nM; TGI: 26700 nM

Q: For `C=C1C(=O)O[C@H]2[C@H]1CC/C(COC(=O)NCc1c[nH]c3ccccc13)=C\CC[C@@]1(C)O[C@@H]21`, which GI50 is on record?
A: 820 nM

Q: What about the TGI of the same molecule?
A: 3580 nM

Q: With `CC(=O)/C(=C/c1ccccc1)C(=O)CC(C)C` as the molecule, how does the GI50 read?
A: 11100 nM

Q: What about the TGI of the same molecule?
A: 28000 nM

Q: What does the source list for `CC/C=C\C[C@H](F)C/C=C1/C(=O)C=C[C@@H]1C/C=C\CCCC(=O)OC`?
A: GI50: 5260 nM; TGI: 17200 nM

Q: `COc1cc(C2CC(c3cccc(Nc4ccnc5cc(Cl)ccc45)c3)=NN2c2ccc(Cl)cc2)cc(OC)c1OC` (stereo not given) was tested. Which GI50 did it give?
A: 6290 nM

Q: What about the TGI of the same molecule?
A: > 100000 nM

Q: What does the source list for `COc1ccc(/C=C2\CN(C(=O)C(Cl)Cl)C/C(=C\c3ccc(OC)cc3)C2=O)cc1`?
A: GI50: 1040 nM; TGI: 2740 nM

Q: Which GI50 does the source give for `Cn1c(=O)c(Oc2ccc(F)cc2F)cc2cnc(NC(C)(C)CO)nc21` here?
A: > 25000 nM

Q: What about the TGI of the same molecule?
A: > 25000 nM

Q: What does the source list for `CCCCC(CCCCCC(CCCC)NCc1ccc2c(c1)OCO2)NCc1ccc2c(c1)OCO2` (stereo not given)?
A: GI50: 480 nM; TGI: 981 nM

Q: With `O=S(=O)(CCN1CCOCC1)Nc1cc(-c2ccc3ncnc(Nc4ccc(F)c(Cl)c4)c3c2)cnc1Cl` as the molecule, how does the GI50 read?
A: 198 nM

Q: What about the TGI of the same molecule?
A: 1560 nM

Q: Which GI50 does the source give for `O=C1/C(=C/c2ccccc2)CN(C(=O)C(Cl)Cl)C/C1=C\c1ccccc1` here?
A: 342 nM

Q: What about the TGI of the same molecule?
A: 1380 nM

Q: With `O=C(CC1(O)C(=O)N(Cc2ccccc2)c2ccc(Cl)cc21)c1ccc(C(=O)NCC2CCC3(CC2)OOC2(CCCCC2)OO3)cc1` (stereo not given) as the molecule, how does the GI50 read?
A: 1270 nM

Q: What about the TGI of the same molecule?
A: 4260 nM

Q: How did the GI50 turn out when `Nc1c(C(=O)Nc2ccccc2)sc2nc3c(cc12)CCCCC3` was run?
A: 254 nM

Q: And the TGI?
A: 946 nM

Q: For `CC(C)(C)Nc1nc2c(OCCc3ccccc3)cccn2c1-c1cccc(Oc2ccccc2)c1`, which GI50 is on record?
A: 2200 nM

Q: What about the TGI of the same molecule?
A: 6750 nM

Q: For `C=C1CC2(CC(c3ccccc3Cl)OC(c3ccccc3Cl)C2)OC1=O` (stereo not given), which GI50 is on record?
A: 1750 nM

Q: What about the TGI of the same molecule?
A: 3430 nM

Q: Which results are given for `Cc1ccc(Nc2nccc(N(C)c3ccc4c(C)n(C)nc4c3)n2)cc1S(N)(=O)=O`?
A: GI50: 1770 nM and 2370 nM and 2200 nM; TGI: > 100000 nM and > 10000 nM and 45200 nM

Q: Which results are given for `CSc1c(C2=C(c3cn(C)c4ccccc34)C(=O)NC2=O)c2ccccc2n1C`?
A: GI50: 562 nM; TGI: > 25000 nM

Q: For `COC1C(O)CC(OC2CC(OC3CC(O[C@@H]4C(=O)c5c(cc6cc(OC7CC(OC8CC(O)C(O)C(C)O8)C(O)C(C)O7)c(C)c(O)c6c5O)CC4[C@H](OC)C(=O)O)OC(C)C3O)OC(C)C2O)OC1C` (stereo not given in full), which GI50 is on record?
A: 2590 nM

Q: What about the TGI of the same molecule?
A: 12400 nM

Q: Which GI50 does the source give for `COc1cc(OC)cc(-c2ccc(-c3ccc(C(=N)N)cn3)o2)c1` here?
A: 1510 nM

Q: And the TGI?
A: 3100 nM

Q: What does the source list for `CCCc1n(Cc2ccc3ccccc3c2)cc[n+]1Cc1ccc2ccccc2c1`?
A: GI50: 277 nM; TGI: 980 nM

Q: How did the GI50 turn out when `C[C@H]1/C(=C/C(=O)OCCN(C)C)CC[C@H]2[C@H]1C(=O)C[C@H]1C(C)(C)[C@@H](O)CC[C@]21C` was run?
A: > 100000 nM

Q: What about the TGI of the same molecule?
A: > 100000 nM

Q: `CN(C)CCCN(CCC1CCCCC1)CCC1CCCCC1` was tested. Which GI50 did it give?
A: 1460 nM

Q: And the TGI?
A: 3070 nM

Q: For `CCN1CCC(Nc2ccnc3cc(Cl)ccc23)CC1`, which GI50 is on record?
A: 13300 nM

Q: What about the TGI of the same molecule?
A: 32000 nM

Q: How did the GI50 turn out when `O=C(O)[C@H](Cc1c[nH]c2ccccc12)N1C(=O)c2ccccc2C1=O` was run?
A: > 100000 nM

Q: What about the TGI of the same molecule?
A: > 100000 nM

Q: What does the source list for `O=c1oc2ccc(I)cc2c(=O)n1-c1ccc(F)cc1F`?
A: GI50: 2230 nM; TGI: 5690 nM

Q: Which GI50 does the source give for `COc1ccc(C=Nc2c(C(=O)Nc3cccc(Cl)c3C)sc3nc(C)c(C(=O)/C=C/c4ccc(OC)cc4)cc23)cc1` here?
A: 200 nM

Q: What about the TGI of the same molecule?
A: 2200 nM

Q: Which GI50 does the source give for `CCCCCCCCCCCCCCCC1=NCCN1` here?
A: 2220 nM

Q: And the TGI?
A: 4070 nM

Q: Which GI50 does the source give for `CC1CCN(Cc2ccc(NC(=O)c3cc4ccc5cccnc5c4[nH]3)cc2)CC1` here?
A: 2610 nM

Q: What about the TGI of the same molecule?
A: 16300 nM

Q: How did the GI50 turn out when `NC(=NCc1ccccc1)C(N=Nc1ccccc1)C(=O)NCc1ccccc1` (stereo not given) was run?
A: 11500 nM

Q: And the TGI?
A: 26400 nM

Q: What does the source list for `Cc1c(-c2ccc(C3CCCCC3)cc2)nc2ccc(F)cc2c1C(=O)O`?
A: GI50: 19100 nM; TGI: > 100000 nM

Q: What does the source list for `Cn1ccnc1C(=O)/C=C/c1ccc(NC(=O)Nc2ccccc2)cc1`?
A: GI50: 11400 nM; TGI: 27500 nM

Q: How did the GI50 turn out when `COc1cc2c(c(OC)c1OC)-c1ccc(O)cc1[C@@H](NC(C)=O)CC2` was run?
A: 24.4 nM

Q: What about the TGI of the same molecule?
A: 68.4 nM

Q: For `CCCCCCCCCCCCCCCCCc1nccn1CCOCCO`, which outcome is on record?
A: inactive

Q: Which results are given for `Cc1ccc2oc(=O)cc(/C(=C3/C=CC=N3)c3ccc[nH]3)c2c1`?
A: GI50: 243 nM; TGI: 1020 nM

Q: `O=C(CCl)NCCNc1nccc(Nc2ccc(S(=O)(=O)Nc3ccccn3)cc2)n1` was tested. Which GI50 did it give?
A: 1050 nM

Q: What about the TGI of the same molecule?
A: 4530 nM

Q: With `COc1ccc2c(c1)c(-c1nc(-c3c[nH]c4ncccc34)cs1)cn2CCCN1CCCCC1` as the molecule, how does the GI50 read?
A: 1860 nM

Q: And the TGI?
A: 3560 nM

Q: Which results are given for `CCCCN1CCCC[C@@H]1C(=O)N[C@H](C(=O)N(C)[C@H](C[C@@H](OC(C)=O)c1nc(C(=O)NC2CCC(C(=O)OC)CC2)cs1)C(C)C)C(C)C` (stereo not given in full)?
A: GI50: 707 nM; TGI: 8180 nM
